# Results from patent publication US8338624B2, “Isoflavone derivatives and uses thereof” (Yeda Research and Development Co., Ltd., priority 2007, dated 2012).
# Columns and labels:
# [1] = system: Human umbilical vascular smooth muscle cells (VSMC); experiment: DNA synthesis by [3H]-thymidine incorporation, normal VSMC; format: cell-based; settings: compound at 3 μM
# Experimental: Human umbilical vascular smooth muscle cells (VSMC) sensitive to estrogen, were grown in culture as described above, and used only at passages 1-3, when expression of smooth muscle actin was clearly demonstrable (Somjen et al. 2000). The ratio of the expression of mRNA for ERα to ERβ was 2.7:1.
# (§1) [^3H]-Thymidine incorporation into DNA was used for the assessment of the various effects (proliferative or inhibitory) of various isoflavones, isoflavone derivatives and known cytotoxic drugs in the above-mentioned cells. Cells were grown until subconfluence using conditions described in Somjen et al. (Somjen et al., 1998) and then treated with various agents for 24 or 48 h as indicated. At the end of incubation, [^3H]-thymidine was added for two hours. Cells were then treated with 10% ice-cold trichloroacetic (TCA) for 5 min and washed twice with 5% TCA and then with cold ethanol. The cellular layer was dissolved in 0.3 ml of 0.3 M NaOH, aliquots were taken for counting radioactivity, and [^3H]-thymidine incorporation into DNA was calculated.
# [2] = system: human prostate C4-2B cancer cells; experiment: DNA synthesis by [3H]-thymidine incorporation, C4-2B cells; format: cell-based
# Experimental: (§2) Cells were cultured in MEM supplemented with 10% FCS and antibiotics. Cells were grown to subconfluence and then treated with various hormones or agents as described by Somjen et al. (Somjen et al., 1998). The cells were characterized in terms of expression of mRNAs for estrogen […] by real time PCR, and the results are summarized in Table 1. N87, 320DM and H295R cells expressed mRNAs for both ERs. The ratio of ERα to ERβ was 1:8.5, 1:30 and 1:1.8 in N87, 320DM and H295R cells, respectively. Ovarian A2780 and prostate C4-24 cells expressed mainly mRNA for ERβ, and the ratio of ERβ to ERα was 300:1 and 70:1, respectively. MLS ovarian cells expressed mRNA only for ERβ. The ratio of ERα to ERβ in T47D cells has been reported to be 9:1.
# as §1
# [3] = system: EKVX non small lung cancer cell line; experiment: NCI In Vitro Cell Line Screening, EKVX; format: cell-based; settings: Homo sapiens, read-out: log10 GI50 (converted)
# Experimental: An in vitro cell line screen for the t-boc derivative of daidzein (compound 9) was performed at the NCI/NIH US utilizing the In Vitro Cell Line Screening Project (IVCLSP) (National Cancer Institute, Developmental Therapeutics Program, Information Technology Branch, Rockville, Md., USA).
# The operation of this screen utilized 60 different human tumor cell lines, representing leukemia, melanoma and cancers of the lung, colon, brain, ovary, breast, prostate, and kidney. […] Using these algorithms, it is possible to assign a putative mechanism of action to a test compound, or to determine that the response pattern is unique and not similar to that of any of the standard prototype compounds included in the NCI database.
# To facilitate analysis of the data, three endpoints were calculated for each cell line: The GI50 value, which is the negative log10 of the concentration required to inhibit the growth of that cell line by 50% (relative to untreated cells); TGI, the negative log10 of minimum concentration that causes total growth inhibition; and LC50, which reflects the negative log10 concentration needed to kill 50% of the cells. A Mean Graph was used as a way of easily visualizing the results from all 60 cell lines at once. To generate this graph, the mean of GI50 values across all 60 cell lines was calculated. […]
# [4] = system: MLS ovarian cancer cells; experiment: DNA synthesis by [3H]-thymidine incorporation, MLS cells; format: cell-based, human
# Experimental: as §2, §1
structure (smiles),measurement,setting,value
CC(C)(C)OC(=O)NCCCCCCNC(=O)COc1ccc2c(=O)c(-c3ccc(O)cc3)coc2c1 [Compound 9],"DNA synthesis, ratio experimental/control (E/C)",[1],0.73 ± 0.13
same,inhibition at 0.03 µM,"[2]; Homo sapiens, at 30 nM",30%
same,inhibition at 0.3 µM,"[2]; Homo sapiens, at 300 nM",~50%
same,"DNA synthesis, ratio experimental/control (E/C)",[2]; compound at 0.3 μM,0.28 ± 0.2
same,GI50,[3],1950 nM
same,incubation time at which plateau of inhibition of DNA synthesis was reached,[4],72 h
same,"DNA synthesis, ratio experimental/control (E/C)",[4]; 9 (0.3 μM) + E2 30 nM,0.96 ± 0.24
same,"DNA synthesis, ratio experimental/control (E/C)",[4]; 9 (0.3 μM) + E2 0.3 μM,2.39 ± 0.07
same,DNA synthesis (% of control),[4]; 9 at 0.3 μM + 25 μM Z-VADFK,132%
same,"DNA synthesis, ratio experimental/control (E/C)",[4]; 9 at 0.3 μM + Z-VADFK (25 μM),1.32 ± 0.26
same,suppression of the proliferative effect of estradiol,[4]; 9 at 0.3 μM + estradiol 0.3 μM,could not suppress its proliferative effect
same,"DNA synthesis, ratio experimental/control (E/C)",[4]; 9 at 0.3 μM alone (Table 3),0.61 ± 0.10
same,"DNA synthesis, ratio experimental/control (E/C)",[4]; 9 at 0.3 μM alone (Table 4),0.74 ± 0.11
same,"DNA synthesis, ratio experimental/control (E/C)",[4]; 9 at 3 μM + Z-VADFK 25 μM,0.76 ± 0.16
same,effect of apoptosis inhibitor on inhibition by 9,[4]; 9 at 3 μM + Z-VADFK 25 μM,capable of reversing the inhibitory effect of 9 on DNA synthesis
same,"DNA synthesis, ratio experimental/control (E/C)",[4]; 9 at 3 μM alone (Table 4),0.44 ± 0.14
same,effect on [3H]-thymidine incorporation into DNA,[4]; 15 to 6000 nmol/l,dose dependent decreases
same,inhibition at 0.3 µM,"[4]; Homo sapiens, 9 at 0.3 μM alone",26%
same,inhibition at 3 µM,"[4]; Homo sapiens, 9 at 3 μM alone",56%
same,"DNA synthesis, ratio experimental/control (E/C)",[4]; compound at 3 μM,0.03 ± 0.07
same,DNA synthesis (% of control),[4]; estradiol 30 nM + 0.3 μM compound 9,96%
